Converted amounts (≈) assume the structure as drawn. Where only a bound is given, the exact number is not on record here.

Data set [1] is described as follows: Half life in human liver microsomes at 0.1 uM in presence of NADPH by LC/MS/MS method. It is filed as ADME.
Data set [2] deals with Staphylococcus aureus. Nature of the data set: Antibacterial activity against methicillin-sensitive Staphylococcus aureus incubated for 16 hrs by agar dilution method. Type of data set: functional.
In data set [3] the test system is Staphylococcus epidermidis. Nature of the data set: Antibacterial activity against methicillin-sensitive Staphylococcus epidermidis incubated for 16 hrs by agar dilution method. Type of data set: functional.
Data set [4] in a line: Half life in Sprague-Dawley rat liver microsomes at 0.1 uM in presence of NADPH by LC/MS/MS method. Type of data set: ADME.
In another data set the test system is Enterococcus faecalis. Nature of the data set: Antibacterial activity against Enterococcus faecalis incubated for 16 hrs by agar dilution method. It is filed as functional. Background: In agar dilution, organisms are placed on agar that contains the substance at set levels.
For a further data set, the system named is Streptococcus pneumoniae. Put plainly: Antibacterial activity against penicillin-resistant Streptococcus pneumoniae incubated for 16 hrs by agar dilution method. Type of data set: functional.
Data set [5] deals with Staphylococcus epidermidis. Nature of the data set: Antibacterial activity against methicillin-resistant Staphylococcus epidermidis incubated for 16 hrs by agar dilution method. Type of data set: functional.
Data set [6] concerns Staphylococcus aureus. Nature of the data set: Antibacterial activity against methicillin-resistant Staphylococcus aureus incubated for 16 hrs by agar dilution method. Type of data set: functional.
In data set [7] the test system is Staphylococcus aureus. Nature of the data set: Antibacterial activity against Staphylococcus aureus […] incubated for 16 hrs by agar dilution method. Type of data set: functional.

One may read the half-life as the time in which the quantity being followed falls by half. In general, MIC refers to the lowest concentration that inhibits growth of the organism. Consider `CN1C[C@H](c2ccc(-c3ccc4c(c3)OC[C@H]3[C@H](CO)OC(=O)N43)cn2)OC1=O`, for which the half-life at 0.1 µM in [1] was determined as 68.8 h; in data set [4], 16.7 h. In addition, the MIC in the data set with Staphylococcus aureus [2] amounted to 0.5 µg/mL (≈ 1.26 µM); in data set [3] it was 0.25 µg/mL (≈ 0.629 µM); in the data set with Enterococcus faecalis, 1 µg/mL (≈ 2.52 µM); in the data set on Streptococcus pneumoniae it was 1 µg/mL (≈ 2.52 µM); in data set [5] it was 0.25 µg/mL (≈ 0.629 µM); against Staphylococcus aureus [6] it was 0.5 µg/mL (≈ 1.26 µM). The MIC with Staphylococcus aureus [7] was determined as 0.5 µg/mL (≈ 1.26 µM).

In the case of `O=C1OCCN1c1ccc(-c2ccc3c(c2)OC[C@H]2[C@H](CO)SC(=O)N32)cn1`, the MIC (against Staphylococcus aureus [2]; in [3]; against Enterococcus faecalis; in the data set with Streptococcus pneumoniae; against Staphylococcus aureus [7]) was above 16 µg/mL in each case.

Consider `N#Cc1ccc(-c2ccc3c(c2)OC[C@H]2[C@H](CO)SC(=O)N32)cn1`, for which the minimum inhibitory concentration (MIC) (against Staphylococcus aureus [2]; in [3]; against Enterococcus faecalis; against Streptococcus pneumoniae; against Staphylococcus aureus [7]) was above 16 µg/mL in each case.

On to `O=C1OCCN1c1ccc(-c2ccc3c(c2)SC[C@H]2[C@H](CO)OC(=O)N32)cn1`, for which the minimum inhibitory concentration (MIC) (in the data set on Staphylococcus aureus [2]; in data set [3]; against Enterococcus faecalis; in the data set with Streptococcus pneumoniae; against Staphylococcus aureus [7]) was above 16 µg/mL each time.

With `N#Cc1ccc(-c2ccc3c(c2)SC[C@H]2[C@H](CO)OC(=O)N32)cn1`, the MIC (with Staphylococcus aureus [2]; in [3]; against Enterococcus faecalis; with Streptococcus pneumoniae; in the data set on Staphylococcus aureus [7]) was above 16 µg/mL in each case.

Consider `N#CC1(c2ccc(-c3ccc4c(c3)SC[C@H]3[C@H](CO)OC(=O)N43)cn2)CC1`, for which the minimal inhibitory concentration (MIC) (against Staphylococcus aureus [2]; in data set [3]; against Enterococcus faecalis; with Streptococcus pneumoniae; with Staphylococcus aureus [7]) was above 16 µg/mL in each case.

With `CC(C)(C)OC(=O)N1CC2C(CO)OC(=O)N2c2ccc(-c3ccc(C4(C#N)CC4)nc3)cc21` (configuration not stated), the minimum inhibitory concentration (MIC) (against Staphylococcus aureus [2]; in [3]; with Enterococcus faecalis; in the data set on Streptococcus pneumoniae; against Staphylococcus aureus [7]) was above 16 µg/mL in each case.

As to `N#CC1(c2ccc(-c3ccc4c(c3)NCC3C(CO)OC(=O)N43)cn2)CC1` (configuration not stated), the MIC (in the data set with Staphylococcus aureus [2]; in data set [3]; against Enterococcus faecalis; in the data set on Streptococcus pneumoniae; with Staphylococcus aureus [7]) was above 16 µg/mL throughout.

In the case of `CC(=O)NC[C@@H]1OC(=O)N2c3ccc(-c4ccc(C(C)=O)nc4)cc3SC[C@@H]12`, the MIC was 2 µg/mL (≈ 5.03 µM) in the data set with Staphylococcus aureus [2]; 2 µg/mL (≈ 5.03 µM) in data set [3]; 4 µg/mL (≈ 10.1 µM) against Enterococcus faecalis; 2 µg/mL (≈ 5.03 µM) against Streptococcus pneumoniae; 2 µg/mL (≈ 5.03 µM) in data set [5]; 2 µg/mL (≈ 5.03 µM) in the data set on Staphylococcus aureus [6]. In the data set with Staphylococcus aureus [7], this compound registered an MIC of 8 µg/mL (≈ 20.1 µM).

As to `COc1ccc(-c2ccc3c(c2)SC[C@H]2[C@H](CNC(C)=O)OC(=O)N32)cn1`, the MIC in the data set with Staphylococcus aureus [2] was found to be 8 µg/mL (≈ 20.8 µM); in [3], 4 µg/mL (≈ 10.4 µM); against Enterococcus faecalis, 8 µg/mL (≈ 20.8 µM); with Streptococcus pneumoniae, 4 µg/mL (≈ 10.4 µM); in data set [5], 4 µg/mL (≈ 10.4 µM); against Staphylococcus aureus [6] it was 4 µg/mL (≈ 10.4 µM). Further, it took 8 µg/mL (≈ 20.8 µM) to inhibit growth in the data set with Staphylococcus aureus [7] (MIC).

As to `CC(=O)NC[C@@H]1OC(=O)N2c3ccc(-c4ccc(F)nc4)cc3SC[C@@H]12`, the MIC with Staphylococcus aureus [2] was 4 µg/mL (≈ 10.7 µM); in [3], 2 µg/mL (≈ 5.36 µM); against Enterococcus faecalis, 4 µg/mL (≈ 10.7 µM); against Streptococcus pneumoniae, 2 µg/mL (≈ 5.36 µM); in data set [5], 2 µg/mL (≈ 5.36 µM); in the data set with Staphylococcus aureus [6], 2 µg/mL (≈ 5.36 µM). The compound further registered an MIC against Staphylococcus aureus [7] of 4 µg/mL (≈ 10.7 µM).

As for `CC(=O)NC[C@@H]1OC(=O)N2c3ccc(-c4ccc(C#N)nc4)cc3SC[C@@H]12`, the MIC in the data set on Staphylococcus aureus [2] is 4 µg/mL (≈ 10.5 µM); in [3], 4 µg/mL (≈ 10.5 µM); against Enterococcus faecalis it was 2 µg/mL (≈ 5.26 µM); in the data set on Streptococcus pneumoniae, 2 µg/mL (≈ 5.26 µM); in data set [5] it was 4 µg/mL (≈ 10.5 µM); against Staphylococcus aureus [6], 4 µg/mL (≈ 10.5 µM). This compound had an MIC in the data set on Staphylococcus aureus [7] of 8 µg/mL (≈ 21 µM).

The record behind these values is ChEMBL document CHEMBL3400146, “Synthesis and structure-activity relationship studies of novel [6,6,5] tricyclic oxazolidinone derivatives as potential antibacterial agents” (Bioorg Med Chem Lett, 2015).
